Here are results for two compounds from paper PMC12480552 (Scientific Reports, 2025).

“And” between values parts separate entries of the source, which are not always exact repeats. Equal values may be shown once. Read-outs that look alike come from different tables or passages of the source.

For data set [1] the following is noted: oral dosing in NHPs; ref data not reported; cited from earlier work.
Data set [2] in a line: MALDI MSI of brain sections, biodistribution in healthy nonhuman primates. Conditions: for concentration at 4 h: male, rhesus monkey, oral, 6 mg/kg. How it is done:
Animals were randomized using the GSK Randomization App 2.0, which is an internal software tool that uses the ‘sample’ function in R to randomly shuffle animal IDs, then assigns them to treatment groups to ensure unbiased allocation.
Before each dose, animals were lightly sedated with an intramuscular injection of ketamine (5–10 mg/kg), and a blood sample was drawn. […] NHPs were euthanized by administering an overdose of injected sodium pentobarbital IV (150–200 mg/kg) and confirmed by thoracotomy and exsanguination. Terminal plasma, cerebrospinal fluid, and brain tissue were collected at necropsy. […] The brain was cut into six roughly 1-cm thick coronal segments before snap-freezing by floating on liquid nitrogen. The right hemispheres of the four interior coronal brain segments were cryosectioned and analyzed by matrix-assisted laser desorption/ionization mass spectrometry imaging (MALDI MSI) to quantitatively assess the tissue distribution of the dosed compounds[40]–[43]. After MALDI MSI analysis, tissue sections were stained with hematoxylin and eosin (H&E) for correlation of ion images with underlying tissue histology.
For both the nonhuman primate (NHP) and mouse metastases model studies, brain tissue sections of 6-µm thickness were prepared on a Leica CM1950 cryostat (Leica Biosystems, Danvers, MA). For the NHP study, tissue sections were collected from four of the coronal brain segments from each animal. From each coronal segment, three tissue sections were collected for MALDI MSI, one section for hematoxylin and eosin (H&E) staining, and roughly 30 sections were collected into a pre-weighed vial for homogenization and liquid chromatography–tandem mass spectrometry (LC-MS/MS) bioanalysis. The three sections for MALDI MSI were thaw-mounted onto double-width indium tin oxide–coated slides (BigSlides; Bruker Daltonics, Billerica, MA) that had been pretreated with a poly-L-lysine solution to improve tissue adherence. The section for H&E staining was thaw-mounted onto a standard double-width glass microscope slide.
A gelatin cast of the mimetic model was prepared by pipetting a warmed (50 °C) 15% gelatin solution into a tissue microarray mold (Arraymold kit C, 4 mm, 15 cores; Arraymold, Ogden, UT). The gelatin cast was then frozen overnight at (− 20 °C). Bulk homogenate of control rat brain tissue was prepared using an Omni Bead Ruptor Elite bead mill homogenizer (Omni International, Kennesaw, GA). […] The gelatin cast was warmed to room temperature, and the spiked homogenates were pipetted into each of the individual wells. The cast and homogenate were then frozen by floating on liquid nitrogen and stored at − 80 °C. Cryosections (6-µm thickness) of the mimetic tissue model were then collected on the same slide as the sample tissue to be quantified.
Slides were coated with a TM Sprayer (HTX Technologies, Chapel Hill, NC) using the following parameters: 0.1-mL/min flowrate, 70 °C, 3-mm track spacing with CC pattern, and 8 passes.
MALDI MSI was performed on either a Bruker ScimaX (7T) or a Bruker SolariX (7T) FT-ICR mass spectrometer. […] Both narrowband and CASI windows were centered between parent and internal standard m/z. The small laser focus was used with 200 laser shots per position, and the laser power was adjusted in accordance with a quality control sample acquired just before initiating the imaging sequence.
After MALDI MSI acquisition, slides were immersed in 100% ethanol for 5 min to remove the MALDI matrix. Slides were then stained with H&E and digitally scanned. Ion images were loaded into flexImaging (Bruker Daltonics), the post–MALDI H&E image was coregistered, and key regions of interest (ROIs) for the tissue and mimetic model were drawn. […] This stipulation was implemented to avoid internal standard normalization of noise, which can introduce artifactual distributions.

For data set [3] the following is noted: 43 patients, phase 0 cohort, 200 or 300 mg once daily 4 days, cited from earlier work.
On the set-up of data set [4]: method as in earlier work. Particulars: humans, multiple-dose oral administration; cited from earlier work.

In the case of `NC(=O)c1cccc2cn(-c3ccc([C@@H]4CCCNC4)cc3)nc12` [Niraparib], the “plasma time to peak drug concentration (Tmax)” value in data set [1] is listed as “≈ 4 h”. Further, the “MALDI MSI Brain sections, mean (SD)” value in data set [2] (healthy rhesus macaques, individual animals, oral once daily 5 days, niraparib 6 mg/kg (4 h after last dose), olaparib 10 mg/kg (2–2.5 h), total concentration, LOD 20 ng/g niraparib, 70 ng/g olaparib) is 283 (69) ng/g and 684 (189) ng/g. For the same compound, the concentration at 4 h stood at 268 ng/g in data set [2] (brain (coronal Region 1 sections), MALDI MSI Mean Conc. by brain region, NHP-1, Region 1, 3 sections, Fig. 1B); 524 ng/g in data set [2] (brain (coronal Region 1 sections), MALDI MSI Mean Conc. by brain region, NHP-2, Region 1, 3 sections, Fig. 1B); 287 ng/g in data set [2] (brain (coronal Region 2 sections), MALDI MSI Mean Conc. by brain region, NHP-1, Region 2, 3 sections, Fig. 1B); 610 ng/g in data set [2] (brain (coronal Region 2 sections), MALDI MSI Mean Conc. by brain region, NHP-2, Region 2, 3 sections, Fig. 1B); 217 ng/g in data set [2] (brain (coronal Region 3 sections), MALDI MSI Mean Conc. by brain region, NHP-1, Region 3, 3 sections, Fig. 1B); 822 ng/g in data set [2] (brain (coronal Region 3 sections), MALDI MSI Mean Conc. by brain region, NHP-2, Region 3, 3 sections, Fig. 1B). The concentration at 4 h in data set [2] (brain (coronal Region 4 sections), MALDI MSI Mean Conc. by brain region, NHP-1, Region 4, 3 sections, Fig. 1B) stood at 362 ng/g; in data set [2] (brain (coronal Region 4 sections), MALDI MSI Mean Conc. by brain region, NHP-2, Region 4, 3 sections, Fig. 1B), 781 ng/g; in data set [2] (brain blood vessel, Niraparib Mean Conc. in histological ROI, NHP-1, Blood Vessel, Fig. 1D) it was 779 ng/g; in data set [2] (brain blood vessel, Niraparib Mean Conc. in histological ROI, NHP-2, Blood Vessel, Fig. 1D), 1210 ng/g; in data set [2] (brain gray matter, Niraparib Mean Conc. in histological ROI, NHP-1, Gray Matter, Fig. 1D), 292 ng/g; in data set [2] (brain gray matter, Niraparib Mean Conc. in histological ROI, NHP-2, Gray Matter, Fig. 1D), 743 ng/g. Besides, the concentration at 4 h in data set [2] (brain parenchyma, mean unbound niraparib concentration in the brain parenchyma, healthy rhesus macaques, estimated from MALDI MSI) was ~15 ng/g; in data set [2] (brain ventricle, Niraparib Mean Conc. in histological ROI, NHP-1, Ventricle, Fig. 1D) it was 3360 ng/g; in data set [2] (brain ventricle, Niraparib Mean Conc. in histological ROI, NHP-2, Ventricle, Fig. 1D), 4830 ng/g; in data set [2] (brain white matter, Niraparib Mean Conc. in histological ROI, NHP-1, White Matter, Fig. 1D) it was 177 ng/g; in data set [2] (brain white matter, Niraparib Mean Conc. in histological ROI, NHP-2, White Matter, Fig. 1D) it was 350 ng/g. In addition, the “Kp, tumor” value in data set [3] (gadolinium-enhanced tissue) was 7.5; in data set [3] (nonenhanced tissue) it was 4.2.
Consider `O=C(c1cc(Cc2n[nH]c(=O)c3ccccc23)ccc1F)N1CCN(C(=O)C2CC2)CC1` [Olaparib], for which the Tmax in data set [4] was 1 to 3 h.

In general, Tmax refers to the time from dosing to the highest level.
